Measurements reported in patent publication US6355799B1, “Substituted benzene compounds, process for their preparation, and herbicidal and defoliant compositions containing them” (ISK Americas Incorporated, priority 1997, dated 2002).

Key:
Assay type in all cases: in vivo
[1] = tested on: field corn (Zea mays L., var. Dekalb 535, CORN); test: Post-emerge test, crop safety; conditions: post-emerge, 14 days after application, rating scale 0-100
In short: (§1)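 Rating: 0–100 visual injury, 14 DAA. Application: acetone, 187 l/ha, 15–1000 g ai/ha, flat-fan track sprayer with nozzle 40–45 cm above soil or canopy. Post-emerge runs used 0.25% v/v surfactant on 2–3 leaf plants.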

[2] = tested on: upland rice (Oryza sp., var. Tebonnet, RICE); test: Post-emerge test, crop safety; conditions: post-emerge, 14 days after application, rating scale 0-100
In short: as §1

[3] = tested on: common ragweed (Ambrosia artemisizfolia L., AMBEL); test: Pre-emerge test, greenhouse herbicide activity screening; conditions: phytotoxicity rating 0-100, 14 days after application
In short: (§2)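 Compounds in acetone were track-sprayed at 15–1000 g ai/ha: pre-emergence onto soil sown the previous day, then top-watered to incorporate and later bottom-watered; post-emergence onto 2–3 leaf plants with 0.25% v/v surfactant, bottom-watered only. Ratings on a 0–100 phytotoxicity scale were taken at day 14.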

[4] = tested on: lambsquarters (Chenopodium album, CHEAL); test: as above; conditions: phytotoxicity rating 0-100, 14 days after application
In short: as §2

[5] = tested on: johnsongrass (Sorghum halepense, SORHA); test: as above; conditions: phytotoxicity rating 0-100, 14 days after application
In short: as §2

[6] = tested on: sicklepod (Cassia obtusifolia, CASOB); test: as above; conditions: phytotoxicity rating 0-100, 14 days after application
In short: as §2

[7] = tested on: green foxtail (Setaria viridis, SETVI); test: as above; conditions: phytotoxicity rating 0-100, 14 days after application
In short: as §2

[8] = tested on: large crabgrass (Digitaria sanguinalis, DIGSA); test: as above; conditions: phytotoxicity rating 0-100, 14 days after application
In short: as §2

[9] = tested on: velvetleaf (Abutilon theophrasti, ABUTH); test: as above; conditions: phytotoxicity rating 0-100, 14 days after application
In short: as §2

[10] = tested on: barnyardgrass (Echinochloa crus-galli, ECHCG); test: as above; conditions: phytotoxicity rating 0-100, 14 days after application
In short: as §2

[11] = tested on: ivyleaf morningglory (Ipomoea hederacea, IPOHE); test: as above; conditions: phytotoxicity rating 0-100, 14 days after application
In short: as §2

[12] = tested on: field corn (Zea mays L., var. Dekalb 535, CORN); test: Pre-emerge test, crop safety; conditions: crop damage rating 0-100, 14 days after application
In short: (§3)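 Compounds in acetone were track-sprayed at 15-1000 g ai/ha (187 l/ha) on sandy loam pots: pre-emerge one day after seeding, post-emerge at 2-3 leaf stage with 0.25% v/v non-ionic surfactant. Phytotoxicity was rated 14 days later on a 0 (no damage) to 100 (complete death) scale.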

[13] = tested on: upland rice (Oryza sp., var. Tebonnet, RICE); test: Pre-emerge test, crop safety; conditions: crop damage rating 0-100, 14 days after application
In short: as §3

[14] = tested on: lambsquarters (Chenopodium album, CHEAL); test: Post-emerge test, greenhouse herbicide activity screening; conditions: post-emerge, 14 days after application, rating scale 0-100
In short: as §1

[15] = tested on: redroot pigweed (Amaranthus retroflexus, AMARE); test: as above; conditions: post-emerge, 14 days after application
In short: as §1

[16] = tested on: johnsongrass (Sorghum halepense, SORHA); test: as above; conditions: post-emerge, 14 days after application, rating scale 0-100
In short: as §1

[17] = tested on: sicklepod (Cassia obtusifolia, CASOB); test: as above; conditions: post-emerge, 14 days after application, rating scale 0-100
In short: as §1

[18] = tested on: green foxtail (Setaria viridis, SETVI); test: as above; conditions: post-emerge, 14 days after application, rating scale 0-100
In short: as §1

[19] = tested on: large crabgrass (Digitaria sanguinalis, DIGSA); test: as above; conditions: post-emerge, 14 days after application, rating scale 0-100
In short: as §1

[20] = tested on: velvetleaf (Abutilon theophrasti, ABUTH); test: as above; conditions: post-emerge, 14 days after application, rating scale 0-100
In short: as §1

[21] = tested on: barnyardgrass (Echinochloa crus-galli, ECHCG); test: as above; conditions: post-emerge, 14 days after application, rating scale 0-100
In short: as §1

[22] = tested on: ivyleaf morningglory (Ipomoea hederacea, IPOHE); test: as above; conditions: post-emerge, 14 days after application, rating scale 0-100
In short: as §1

[23] = tested on: redroot pigweed (Amaranthus retroflexus, AMARE); test: Pre-emerge test, greenhouse herbicide activity screening; conditions: phytotoxicity rating 0-100, 14 days after application
In short: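 Herbicidal damage is scored 0 (none) to 100 (complete plant death) two weeks after a simulated field spray. Rates span 15–1000 g ai/ha, delivered in acetone at 187 l/ha. For post-emergence treatments, plants have 2–3 leaves and the spray carries 0.25% v/v non-ionic surfactant.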

CCCCCC(=O)Nc1c(OC)c(Cl)cc(F)c1-n1c(=O)cc(C(F)(F)F)n(C)c1=O [2-198]
30: phytotoxicity rating RICE (crop damage) ([2]; 250 g ai/ha) | Pre-emerge Herbicidal Activity RICE ([13]; 63 g ai/ha) | phytotoxicity rating CASOB ([17]; 250 g ai/ha)
95: phytotoxicity rating AMARE ([15]; 250 g ai/ha, rating scale 0-100)
10: phytotoxicity rating CORN (crop damage) ([1]; 63 g ai/ha) | phytotoxicity rating RICE (crop damage) ([2]; 63 g ai/ha) | phytotoxicity rating SETVI ([18]; 63 g ai/ha) | phytotoxicity rating SETVI ([18]; 250 g ai/ha) | phytotoxicity rating DIGSA ([19]; 63 g ai/ha) | phytotoxicity rating DIGSA ([19]; 250 g ai/ha)
5: phytotoxicity rating ECHCG ([21]; 63 g ai/ha) | phytotoxicity rating ECHCG ([21]; 250 g ai/ha)
100: Pre-emerge Herbicidal Activity AMBEL ([3]; 63 g ai/ha) | Pre-emerge Herbicidal Activity AMBEL ([3]; 250 g ai/ha) | Pre-emerge Herbicidal Activity CHEAL ([4]; 63 g ai/ha) | Pre-emerge Herbicidal Activity CHEAL ([4]; 250 g ai/ha) | Pre-emerge Herbicidal Activity CASOB ([6]; 250 g ai/ha) | Pre-emerge Herbicidal Activity SETVI ([7]; 250 g ai/ha) | Pre-emerge Herbicidal Activity DIGSA ([8]; 63 g ai/ha) | Pre-emerge Herbicidal Activity DIGSA ([8]; 250 g ai/ha) | Pre-emerge Herbicidal Activity ABUTH ([9]; 63 g ai/ha) | Pre-emerge Herbicidal Activity ABUTH ([9]; 250 g ai/ha) | Pre-emerge Herbicidal Activity ECHCG ([10]; 250 g ai/ha) | Pre-emerge Herbicidal Activity IPOHE ([11]; 63 g ai/ha) | Pre-emerge Herbicidal Activity IPOHE ([11]; 250 g ai/ha) | phytotoxicity rating ABUTH ([20]; 250 g ai/ha) | phytotoxicity rating IPOHE ([22]; 250 g ai/ha) | Pre-emerge Herbicidal Activity AMARE ([23]; 63 g ai/ha) | Pre-emerge Herbicidal Activity AMARE ([23]; 250 g ai/ha)
80: Pre-emerge Herbicidal Activity RICE ([13]; 250 g ai/ha) | phytotoxicity rating CHEAL ([14]; 63 g ai/ha) | phytotoxicity rating AMARE ([15]; 63 g ai/ha, rating scale 0-100 (0 no damage, 100 complete death)) | phytotoxicity rating ABUTH ([20]; 63 g ai/ha) | phytotoxicity rating IPOHE ([22]; 63 g ai/ha)
90: Pre-emerge Herbicidal Activity SETVI ([7]; 63 g ai/ha) | Pre-emerge Herbicidal Activity CORN ([12]; 250 g ai/ha) | phytotoxicity rating CHEAL ([14]; 250 g ai/ha)
40: phytotoxicity rating CORN (crop damage) ([1]; 250 g ai/ha)
50: Pre-emerge Herbicidal Activity SORHA ([5]; 63 g ai/ha) | Pre-emerge Herbicidal Activity CASOB ([6]; 63 g ai/ha) | Pre-emerge Herbicidal Activity ECHCG ([10]; 63 g ai/ha) | Pre-emerge Herbicidal Activity CORN ([12]; 63 g ai/ha) | phytotoxicity rating SORHA ([16]; 250 g ai/ha) | phytotoxicity rating CASOB ([17]; 63 g ai/ha)
99: Pre-emerge Herbicidal Activity SORHA ([5]; 250 g ai/ha)
0: phytotoxicity rating SORHA ([16]; 63 g ai/ha)
